This note sets out measurements from patent publication US20170150719A1, “FUNGICIDAL PYRAZOLES AND THEIR MIXTURES” (E I DU PONT DE NEMOURS AND COMPANY, priority 2010, published 2017).

Test [1] concerns Alternaria solani. Briefly: Test B: tomato early blight, preventive spray on tomato seedlings, visual disease rating. As to conditions: tomato early blight; 100 = 100% disease control, 0 = no disease control relative to the controls.
The subject of test [2] is Botrytis cinerea. Briefly: Test A: tomato Botrytis, preventive spray on tomato seedlings, visual disease rating. As to conditions: tomato Botrytis; 100 = 100% disease control, 0 = no disease control relative to the controls.
Method: (§1) General protocol for preparing test suspensions for Tests A-I: the test compounds were first dissolved in acetone in an amount equal to 3% of the final volume and then suspended at the desired concentration (in ppm) in acetone and purified water (50/50 mix by volume) containing 250 ppm of the surfactant Trem® 014 (polyhydric alcohol esters). The resulting test suspensions were then used in Tests A-I. Each test was conducted in triplicate, and the results were averaged. Spraying a 200 ppm test suspension to the point of run-off on the test plants was the equivalent of a rate of about 800 g/ha. Unless otherwise indicated, the rating values indicate a 200 ppm test suspension was used. (An asterisk “*” next to the rating value indicates a 40 ppm test suspension was used.)
The test suspension was sprayed to the point of run-off on tomato seedlings. The following day the seedlings were inoculated with a spore suspension of Botrytis cinerea (the causal agent of tomato Botrytis) and incubated in saturated atmosphere at 20° C. for 48 h, and then moved to a growth chamber at 24° C. for 3 additional days, after which time visual disease ratings were made.
Test [3] has as its system Septoria nodorum. Put plainly: Test E: Septoria glume blotch, preventive spray on wheat seedlings, visual disease rating. As to conditions: Septoria glume blotch; 100 = 100% disease control, 0 = no disease control relative to the controls.
In test [4] the test system is Blumeria graminis f. sp. tritici. Put plainly: Test I: wheat powdery mildew, preventive spray on wheat seedlings, visual disease rating. As to conditions: wheat powdery mildew; 100 = 100% disease control, 0 = no disease control relative to the controls.
Test [5] concerns Septoria tritici. Put plainly: Test F: wheat leaf blotch, preventive spray on wheat seedlings, visual disease rating. To be noted: 100 = 100% disease control, 0 = no disease control relative to the controls. The class given is in vivo. From the text:
A hyphen (-) indicates no test results.

For test [6], the system named is Puccinia recondita f. sp. tritici. Briefly: Test H: wheat leaf rust, preventive spray on wheat seedlings, visual disease rating. As to conditions: wheat leaf rust, sprayed the day before inoculation; 100 = 100% disease control, 0 = no disease control.
Test [7] has as its system Rhizoctonia solani. Briefly: Test D: turf brown patch, preventive spray on creeping bent grass seedlings, disease rating. As to conditions: 100 = 100% disease control, 0 = no disease control relative to the controls.
Method: as §1
The test suspension was sprayed to the point of run-off on creeping bent grass (Agrostis sp.) seedlings. The following day the seedlings were inoculated with a bran and mycelial slurry of Rhizoctonia solani (the causal agent of turf brown patch) and incubated in a saturated atmosphere at 27° C. for 48 h, and then moved to a growth chamber at 27° C. for 3 days, after which time disease ratings were made.
The test system of test [8] is Phytophthora infestans. Briefly: whole plant or invertebrate. The class given is in vivo. To be noted: tomato late blight; 100 = 100% disease control, 0 = no disease control relative to the controls.

Regarding `Cc1nn(C)c(Nc2ccc(F)cc2F)c1-c1ccc(F)cc1Cl` [compound 2], the “Test B rating (disease control)” value in test [1] stood at 100%. In test [2], the “Test A rating (disease control)” value is recorded as 99%. For the same compound, the “Test E rating (disease control)” value in test [3] was 64%. Moreover, the “Test I rating (disease control)” value in test [4] is 99%. Besides, in test [5], the “Test F rating (disease control)” value was determined as 100%. Also, in test [6], the “Test H rating (disease control)” value came to 100%. Further, the “Test D rating (disease control)” value in test [7] turned out to be 98%. Moreover, the “Test C rating (disease control)” value in test [8] is listed as 0%.

As to `Cc1nn(C)c(Nc2ccccc2F)c1-c1ccc(F)cc1Cl` [compound 1], in test [1], the “Test B rating (disease control)” value was 93%. Moreover, the “Test A rating (disease control)” value in test [2] is 99%. In addition, the “Test E rating (disease control)” value in test [3] was 0%. Moreover, the “Test I rating (disease control)” value in test [4] is reported as 100%. Besides, in test [5], the “Test F rating (disease control)” value was determined as 100%. Moreover, the “Test H rating (disease control)” value in test [6] is given as 99%. Besides, the “Test D rating (disease control)” value in test [7] is 99%. The “Test C rating (disease control)” value in test [8] turned out to be 0%.
